Data as given in US7186728B2, “Methylene-4-azasteroids” (Schering AG, priority 2001, dated 2007).

Tested on: action of testosterone propionate (TP) on the growth of the seminal vesicle and prostate
Assay: Antiandrogenic activity: inhibition of testosterone propionate (TP) action on accessory genital gland growth in castrated immature male rats
Format: in vivo, rat
Conditions: for Effects of testosterone propionate, TP, on the prostate and seminal vesicle (in words): castrated immature male rats, TP + compound; for Inhibition of the action of testosterone propionate (TP) on the growth of the prostate / Inhibition of the action of testosterone propionate (TP) on the growth of the seminal vesicle: sexually immature castrated male rats, TP 0.1 mg/animal/day s.c. + 5α-reductase inhibitor 1 mg/animal/day s.c., 7 days, difference vehicle controls and TP controls = 100%
Description: Evaluation of antiandrogenic activity of the compounds of the invention was performed in castrated male rats (see FIGS. 1 to 5/table). Castrated immature male rats were treated for 7 days with testosterone propionate (TP) and the substances of the invention (0.1 mg of TP alone and/or 1 mg of 5α-reductase inhibitor/animal/day, s.s., n=5–10/group). The treatment with TP caused a severe increase in weight of the accessory genital glands (prostate and seminal vesicle). In the animals treated with the vehicle and with 5α-reductase inhibitor alone, the weights of the examined organs remained at low values. The substances of the invention exerted an inhibitory effect in the test systems selected. […] [table]

| Structure (SMILES) | Effects of testosterone propionate, TP, on the prostate and seminal vesicle (in words) | Inhibition of the action of testosterone propionate (TP) on the growth of the prostate | Inhibition of the action of testosterone propionate (TP) on the growth of the seminal vesicle |
| --- | --- | --- | --- |
| CN1C(=O)CC[C@@H]2C3CC[C@]4(C)/C(=C/Cl)CCC4C3CC[C@H]21 (stereo partly drawn) [J 1879] | appreciably reduced | 34% | 25% |
| CN1C(=O)CC[C@]2(C)C3CC[C@]4(C)/C(=C/Cl)CCC4C3CC[C@@H]12 (stereo partly drawn) [J 1924] | appreciably reduced | 39% | 41% |
